Experimental data published in patent publication US8067458B2, “Alkoxyalkyl-substituted cyclic ketoenols” (Bayer Cropscience AG, priority 2006, dated 2011).
Several values for one entry are separate records, joined by “and”; a condition that tells them apart may be missing. Equal values may be shown once. Read-outs that look alike come from different tables or passages of the source.

Key:
Spring wheat = assay type: in vivo; details: post-emergence
[1] = test system: caterpillars of the army worm (Spodoptera frugiperda); assay: Spodoptera frugiperda test (spray treatment); assay type: in vivo; details: 500 g/ha, maize leaf discs
Procedure: Solvent: 78 parts by weight of acetone • • 1.5 parts by weight of dimethylformamide Emulsifier: 0.5 part by weight of alkylaryl polyglycol ether A suitable preparation of active compound is prepared by mixing 1 part by weight of active compound with the stated amounts of solvent and emulsifier and diluting the concentrate with emulsifier-containing water to the desired concentration. Leaf discs of maize (Zea mays) are sprayed with a preparation of active compound at the desired concentration and after they have dried are populated with caterpillars of the army worm (Spodoptera frugiperda).

Spring barley = assay type: in vivo; details: post-emergence
Maize - Arsenal = assay: Greenhouse container trials with maize, safener 1 day prior to herbicide application, pre-emergence; assay type: in vivo; details: 28 days after application
Procedure: (§1) Seeds of monocotyledonous and dicotyledonous weed plants and crop plants are placed in sandy loam soil in wood fibre pots or in plastic pots and are covered with earth. The pots are easily fitted and then the soil surface is treated with the test compounds, formulated as wettable powders (WP) or liquids (EC) in various dosages, with a water application rate of 300 l/ha (converted). […] If the testing is also to look at whether safeners can improve the tolerance of the crop plants for test substances, the following options are used for the application of the safener: • seeds of the crop plants are dressed with the safener substance prior to sowing (the amount of safener is stated as a percentage, based on the seed weight) • crop plants are sprayed with the safener, with a defined application rate per hectare, prior to application of the test substances (typically 1 day before the test substances are applied) • the safener is applied together with the test substance in the form of a tank mix (the amount of safener is reported in g/ha or as a proportion relative to the herbicide). By comparing the effect of test substances on crop plants which have been treated with safener and without safener it is possible to assess the effect of the safener substance.

Maize - CECILIA = assay: as above; assay type: in vivo; details: 50 g a.i./ha, 28 days after application
Procedure: as §1

[2] = Determination of the log P values by HPLC on a reversed phase column (C18); assay type: physicochemical; details: 43° C., EEC Directive 79/831 Annex V.A8
Procedure: The log P values reported in the table were determined in accordance with EEC Directive 79/831 Annex V.A8 by means of HPLC (high performance liquid chromatography) on a reversed phase column (C18). Temperature: 43° C. […] Calibration was carried out with unbranched alkan-2-ones (having 3 to 16 carbon atoms) whose log P values are known (log P values determined on the basis of the retention times by means of linear interpolation between two successive alkanones).

[3] = Penetration of active compounds through enzymatically isolated cuticles of apple leaves; details: spray liquor on isolated cuticles; 20° C., 60% rh; average of 5 to 6 measurements
[4] = 28 days after application, 50 g a.i./ha
[5] = 28 days after application, 100 g a.i./ha
[6] = 28 days after application, 25 g a.i./ha
[7] = 25 g a.i./ha, 10 days after application
[8] = 50 g a.i./ha, 10 days after application
[9] = 10 days after application, 50 g a.i./ha
[10] = 10 days after application, 100 g a.i./ha
[11] = 10 days after application, 25 g a.i./ha
[12] = 10 days after application, 12.5 g a.i./ha

CCc1cc(C)cc(Br)c1C1=C(O)C(C)(COC)NC1=O (racemic) [I-a-6]
Spring wheat observed (%) (Spring wheat; [4]): 20%
Spring wheat observed (%) (Spring wheat; [5]): 30%

CCc1cc(Cl)cc(OC)c1C1=C(O)C(C)(COC)NC1=O (racemic) [I-a-10]
Spring wheat observed (%) (Spring wheat; 28 days after application, 12.5 g a.i./ha): 5%
Spring wheat observed (%) (Spring wheat; [6]): 15%
Spring wheat observed (%) (Spring wheat; [4]): 25%

COCC1(C)NC(=O)C(c2c(C)cc(C)cc2Cl)=C1O (racemic) [I-a-12]
activity (effect in %, caterpillars killed) [1]: ≥ 80%

CCc1cc(C)cc(C)c1C1=C(OC(=O)C(C)C)C(C)(COC)NC1=O (racemic) [I-b-4]
Spring barley observed (%) (Spring barley; [7]): 30%
Spring barley observed (%) (Spring barley; [8]): 40%
Spring barley observed (%) (Spring barley; [9]): 25%
Spring barley observed (%) (Spring barley; [10]): 65%
Spring wheat observed (%) (Spring wheat; 12.5 g a.i./ha, 10 days after application): 30%
Spring wheat observed (%) (Spring wheat; [7]): 50%
Spring wheat observed (%) (Spring wheat; [8]): 70%
Spring wheat observed (%) (Spring wheat; [11]): 10%
Spring wheat observed (%) (Spring wheat; [9]): 50%
Spring wheat observed (%) (Spring wheat; [10]): 75%
Spring wheat observed (%) (Spring wheat; [6]): 10%
Spring wheat observed (%) (Spring wheat; 28 days after application, 50 g a.i./ha, listed as Ex. I-b-4): 15% and 5%
Spring wheat observed (%) (Spring wheat; [5]): 30%

CCc1cc(C)cc(OC)c1C1=C(OC(=O)C(C)C)C(C)(COC)NC1=O (racemic) [I-b-9]
Spring barley observed (%) (Spring barley; [11]): 25%
Spring barley observed (%) (Spring barley; [9]): 75%
Spring barley observed (%) (Spring barley; [6]): 25%
Spring barley observed (%) (Spring barley; [4]): 70%
Spring wheat observed (%) (Spring wheat; [12]): 15%
Spring wheat observed (%) (Spring wheat; [11]): 60%
Spring wheat observed (%) (Spring wheat; [6]): 60%
Spring wheat observed (%) (Spring wheat; [4]): 85%

CCc1cc(Cl)cc(OC)c1C1=C(OC(=O)C(C)C)C(C)(COC)NC1=O (racemic) [I-b-10]
Maize - Arsenal observed (%) (Maize - Arsenal; 12.5 g a.i./ha): 5%
Maize - Arsenal observed (%) (Maize - Arsenal; 25 g a.i./ha): 15%
Maize - Arsenal observed (%) (Maize - Arsenal; 50 g a.i./ha): 25%
Maize - CECILIA observed (%) (Maize - CECILIA): 15%

CCc1cc(C)cc(C)c1C1=C(OC(=O)COC)C(C)(COC)NC1=O (racemic) [I-b-11]
Spring barley observed (%) (Spring barley; [12]): 10%
Spring barley observed (%) (Spring barley; [11]): 15%
Spring barley observed (%) (Spring barley; [9]): 50%
Spring barley observed (%) (Spring barley; [10]): 70%
Spring barley observed (%) (Spring barley; [4]): 25%
Spring barley observed (%) (Spring barley; [5]): 55%
Spring wheat observed (%) (Spring wheat; [11]): 10%
Spring wheat observed (%) (Spring wheat; [9]): 60%
Spring wheat observed (%) (Spring wheat; [6]): 10%
Spring wheat observed (%) (Spring wheat; [4]): 50%

CCc1cc(C)cc(C2CC2)c1CC(=O)NC(C)(COC)C(=O)OC (racemic) [II-20]
logP [2]: oil logP 3.13

COCC(C)(NC(=O)Cc1c(C2CC2)cc(C)cc1C1CC1)C(=O)OC (stereo not shown) [II-27]
logP [2]: logP 3.19

CCc1cc(C)cc(C)c1CC(=O)NC(C)(CCOC)C(=O)OC (stereo not shown) [II-28]
logP [2]: logP 3.19

COCCC(C)(NC(=O)Cc1c(C)cc(C)cc1C)C(=O)OC (stereo not shown) [II-29]
logP [2]: logP 2.86

CCc1cc(Cl)cc(OC)c1CC(=O)NC(C)(CCOC)C(=O)OC (stereo not shown) [II-33]
logP [2]: logP 3.21

CCOc1cc(Cl)cc(CC)c1CC(=O)NC(C)(CCOC)C(=O)OC (stereo not shown) [II-34]
logP [2]: logP 3.64

CCc1cc(C)cc(Br)c1CC(=O)NC(C)(CCOC)C(=O)OC (stereo not shown) [II-35]
logP [2]: logP 3.39

N.N.O=S(=O)(O)O [ammonium sulphate]
penetration through apple leaf cuticles (effect of additive, in words) [3]: significantly improves the penetration
